Results on 3 compounds are retold here after ChEMBL document CHEMBL1201862, “PubChem BioAssay data set” (2004).

Test systems include MCF7; OVCAR-3; SW-620; HCT-116; COLO 205; MOLT-4; MDA-MB-231; SF-295; HCT-15; CAKI-1; Hs-578T; SF-268; SK-MEL-28; SK-MEL-5; Malme-3M; BT-549; A549; SNB-75; SNB-19; EKVX.
Test in all cases: DTP human tumour cell line panel, 48 h

Structures are written as SMILES.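 Test compounds were applied to cells in 96-well plates for 48 hours at 5 doses. The concentration for 50% growth inhibition is given as GI50.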 The source made the active and inactive calls. Rule as the data show it: active = GI50 up to about 1.1 µM and inactive = higher. Bounds are passed on as bounds.

In general, GI50 refers to the concentration giving 50% growth inhibition. As to `CC1C(NNc2ccccc2)Oc2cc3c(cc2C1c1ccccc1O)OCO3` (stereo not given), the GI50 in the test with MCF7 was 3.94 µM (inactive); with OVCAR-3, 11.8 µM (inactive); in the test with SW-620, 13.7 µM (inactive); in the test with HCT-116 it was 4.69 µM (inactive); in the test on COLO 205 it was 11.3 µM (inactive); in the test on MOLT-4 it was 3.17 µM (inactive). Further, the GI50 is 13.4 µM (inactive) with MDA-MB-231; 0.632 µM (active) in the test with SF-295; 1.7 µM in the test with HCT-15; 0.962 µM (active) with CAKI-1; 14.3 µM (inactive) in the test with Hs-578T; 12.2 µM (inactive) in the test on SF-268. Moreover, the GI50 is 12.3 µM (inactive) with SK-MEL-28; 11.6 µM (inactive) in the test with SK-MEL-5; 3.47 µM (inactive) in the test on Malme-3M; 14.2 µM (inactive) with BT-549; 2.93 µM (inactive) in the test with A549; 10.1 µM (inactive) in the test on SNB-75. Further, the GI50 in the test with SNB-19 was 14.3 µM (inactive); in the test with EKVX, 10.9 µM (inactive).

In the case of `C[C@]12CCC(=O)C=C1CC[C@@H]1[C@@H]2[C@@H](O)C[C@@]2(C)[C@H]1CC[C@]2(O)C(=O)CO` [HYDROCORTISONE], the GI50 with MCF7, in the test with OVCAR-3, with SW-620, with HCT-116, with COLO 205 and with MOLT-4 was > 100 µM (inactive) each time. The GI50 was > 100 µM (inactive) with MDA-MB-231; > 100 µM (inactive) with SF-295; greater than 100 µM in the test with HCT-15; > 100 µM (inactive) in the test on CAKI-1; > 100 µM (inactive) in the test on Hs-578T; > 100 µM (inactive) in the test with SF-268. Moreover, the GI50 with SK-MEL-28, in the test on SK-MEL-5, with Malme-3M, in the test with BT-549, with A549 and in the test with SNB-75 was > 100 µM (inactive) throughout. Also, the figures for the GI50 with SNB-19 and in the test with EKVX were > 100 µM (inactive) and > 82.4 µM (inactive), respectively.

With `C=C(C)[C@H]1Cc2c(ccc3c2O[C@@H]2COc4cc(OC)c(OC)cc4[C@@H]2C3=O)O1` [ROTENONE], the GI50 was 0.281 µM (active) in the test on MCF7; 0.0566 µM (active) in the test with OVCAR-3; 0.131 µM (active) in the test on SW-620; 0.0618 µM (active) in the test with HCT-116; 0.118 µM (active) in the test on COLO 205; 0.693 µM (active) with MOLT-4. The GI50 in the test on MDA-MB-231 was 1.02 µM (active); in the test on SF-295 it was 0.0399 µM (active); in the test with HCT-15 it was 0.122 µM; with CAKI-1 it was 0.185 µM (active); with Hs-578T it was 0.0785 µM (active); in the test on SF-268, 0.191 µM (active). Further, the GI50 is 0.162 µM (active) in the test with SK-MEL-28; 0.0203 µM (active) in the test with SK-MEL-5; 0.0762 µM (active) in the test with Malme-3M; 0.164 µM (active) in the test with BT-549; 0.0785 µM (active) in the test with A549; 0.152 µM (active) with SNB-75. Besides, the GI50 with SNB-19 was 0.327 µM (active); with EKVX it was 0.736 µM (active).
